“And” between values parts separate entries of the source, which are not always exact repeats. Identical values can stand only once.
How the values were obtained:
Daudi cells = assay: Cytotoxicity assay (MTT), 72 h; type: cell-based, human; conditions: for IC50: Homo sapiens, Daudi, 72 h of treatment, MTT; for Selectivity index Daudi: IC50 of normal (BALB/3T3) vs. cancer cells (Daudi)
Experimental: (§1) Then, the tested compounds were diluted in culture medium (RPMI1640 + OptiMEM) to reach the final concentrations. Then, cells were treated for 72 h with derivatives at concentrations of […] (100 μL of each concentration per well), or with culture medium alone as a cells control or medium control.
(§2) Each compound in each concentration was tested in triplicate in a single experiment, which was repeated 3–5 times.
(§3) MTT: 20 µL MTT solution (5 mg/mL of PBS, Merck) was added to wells and plates were placed in an incubator. […] The optical density of individual samples was read at a wavelength of 570 nm using a plate reader (Synergy H4 Hybrid Reader, BioTek).

MV4-11 cells = assay: Cytotoxicity assay (MTT), 72 h; type: cell-based, human; conditions: for IC50: Homo sapiens, MV4-11, 72 h of treatment, MTT; for Selectivity index MV4-11: IC50 of normal (BALB/3T3) vs. cancer cells (MV4-11)
Experimental: as §1, §2, §3

[1] = test system: HDAC homologues (HDACs), HeLa cell extract; assay: Fluorimetric HDACs inhibition kit (Histone Deacetylase Activity Assay, HeLa cell extract); conditions: for HDAC activity at 2 µM [%]: remaining HDACs activity at 2 µM compound; for IC50: read-out: Inhibition of HDAC homologues (HDACs) IC50
Experimental: The HDACAA kit is based on a two-step enzymatic reaction. The substrate for the reaction is a substituted peptide with an acetylated lysine residue and a bound fluorescent group. The first step of the reaction is deacetylation of the acetylated lysine side chain by the HDAC containing sample (HeLa cell extract). The second step is the cleavage of the deacetylated substrate with the developer solution and the release of the free highly fluorescent group. […] The plate was incubated at 30 °C for 30 min. Next, 10 µL of Developer Solution was added to each well and incubated at room temperature for 10 min. The fluorescence was measured with the fluorimeter plate reader (SpectraMax iD3, Molecular Devices): excitation wavelength of 360 nm and emission wavelength of 460 nm. The following concentrations were used: 0.1, 0.5, 1, and 2 µM. Each compound in each concentration was tested in triplicate. All calculations were performed using Origin 9.0 software.

HDAC8 = target: T1, HDAC8 (Homo sapiens, UniProt Q9BY41); assay: Histone Deacetylase 8 Activity Assay; type: biochemical; conditions: read-out: Inhibition of HDAC8 activity IC50
T1 construct: purchased Sigma
T1 sequence (Q9BY41 1-377): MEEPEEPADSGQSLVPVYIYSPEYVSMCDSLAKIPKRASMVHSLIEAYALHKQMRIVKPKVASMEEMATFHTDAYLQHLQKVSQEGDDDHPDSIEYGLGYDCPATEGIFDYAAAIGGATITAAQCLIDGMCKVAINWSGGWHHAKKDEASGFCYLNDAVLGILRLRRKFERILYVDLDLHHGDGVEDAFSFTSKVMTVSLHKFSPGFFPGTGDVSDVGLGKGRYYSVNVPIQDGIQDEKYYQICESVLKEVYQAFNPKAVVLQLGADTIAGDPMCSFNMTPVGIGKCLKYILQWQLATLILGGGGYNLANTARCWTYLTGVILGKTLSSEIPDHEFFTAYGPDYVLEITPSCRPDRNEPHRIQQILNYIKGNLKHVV
Experimental: In order to measure histone deacetylase 8 activity, Histone Deacetylase 8 Activity Assay (Sigma) was used. The HDAC8 acts with the supplied Developer to deacetylate and then cleave the HDAC8 Substrate (R-H-K(Ac)-K(Ac)-AFC). The reaction reagents were added to the wells of a 96-well plate according to Table 7. […] The fluorescence was measured with the fluorimeter plate reader: excitation wave-length of 380 nm and emission wavelength of 500 nm. The following concentrations were used: 0.5, 1, 1.5, 2, 3, and 4 µM. Each compound in each concentration was tested in triplicate. All calculations were performed using Origin 9.0 software.

A549 cells = assay: Cytotoxicity assay (SRB), 72 h; type: cell-based, human; conditions: for IC50: Homo sapiens, A549, 72 h of treatment, SRB; for Selectivity index A549: IC50 of normal (BALB/3T3) vs. cancer cells (A549)
Experimental: as §1, §2
(§4) SRB: 50 µL 50% cold trichloroacetic acid (TCA, Merck) solution was added to each wells and incubated for 1 h at 4 °C. The plates were rinsed with distilled water, and after drying on a paper towel, 50 µL of a 0.1% (w/v) solution of sulforodamine B (Merck) in 1% acetic acid (POCH, Poland) was added and incubated for 30 min at room temperature. Subsequently, the plates were washed with 1% (v/v) acetic acid and after desiccation of excess acid, 150 µL of 10 mM TRIS (Merck) was added. After another 30 min of incubation at RT, the optical density of individual samples was read at 540 nm using a plate reader (Synergy H4 Hybrid Reader, BioTek).

MCF-7 cells = assay: Cytotoxicity assay (SRB), 72 h; type: cell-based, human; conditions: for IC50: Homo sapiens, MCF7, 72 h of treatment, SRB; for Selectivity index MCF-7: IC50 of normal (BALB/3T3) vs. cancer cells (MCF-7)
Experimental: as §1, §2, §4

BALB/3T3 cells = assay: Cytotoxicity assay (SRB), 72 h; conditions: Mus musculus, BALB/3T3, 72 h, read-out: IC50 BALB/3T3
Experimental: Then, the tested compounds were diluted in culture medium (RPMI1640 + OptiMEM) to reach the final concentrations. Then, cells were treated for 72 h with derivatives at concentrations of 50, 10, 2, 0.4, and 0.008 µM (100 μL of each concentration per well), or with culture medium alone as a cells control or medium control.

| SMILES | IC50 (Daudi cells) [nM] | IC50 (MV4-11 cells) [nM] | melting point [°C] | HDAC activity at 2 µM [%] [1] [%] | IC50 (HDAC8) [nM] | Selectivity index Daudi (Daudi cells) | Selectivity index MV4-11 (MV4-11 cells) | IC50 (A549 cells) [nM] | Selectivity index A549 (A549 cells) | IC50 (MCF-7 cells) [nM] | Selectivity index MCF-7 (MCF-7 cells) | IC50 (BALB/3T3 cells) [nM] | IC50 [1] |
| --- | --- | --- | --- | --- | --- | --- | --- | --- | --- | --- | --- | --- | --- |
| O=C(CCCCCN1C(=O)c2ccccc2C(=O)N(Cc2ccccc2)c2ccccc21)NO [Compound 7o] | 3520 ± 800 | 3550 ± 750 | 172 to 173 | 64.5 ± 2.1 |  |  |  |  |  |  |  |  |  |
| CN1C(=O)c2ccccc2N(CCCCC(=O)NO)C(=O)c2ccccc21 [Compound 7d] | 9600 ± 2100 | 7580 ± 2500 | 217 to 218 | 64.6 ± 3.6 |  |  |  |  |  |  |  |  |  |
| O=C(CCCCCN1C(=O)c2ccccc2CCc2ccccc21)NO [Compound 7p] | 318 ± 98 | 200 ± 73 | 164 to 165 | 21.5 ± 1.6 | 3140 ± 420 | 3.27 | 5.20 | 1210 ± 240 | 0.86 | 661 ± 120 | 1.57 | 1040 ± 280 | 309 ± 35 nM |
| CN1C(=O)c2cc(Br)ccc2N(CCCCCC(=O)NO)C(=O)c2ccccc21 [Compound 7r] | 785 ± 246 | 603 ± 132 | 76 to 77 | 31.5 ± 7.1 |  | 4.29 | 5.59 | 4610 ± 380 | 0.73 | 2720 ± 570 | 1.24 | 3370 ± 870 | 875 nM and 914 nM |
| CN1C(=O)c2ccccc2N(CCCCCC(=O)NO)C(=O)c2ccccc21 [Compound 7e] | 3030 ± 550 | 2330 ± 640 | 155 to 156 | 48.7 ± 1.0 | 5670 ± 640 |  |  |  |  |  |  |  | 1960 ± 105 nM |
| CN1C(=O)c2ccccc2N(CCCC(=O)NO)C(=O)c2ccccc21 [Compound 7c] | > 50000 | > 50000 | 190 to 191 | 75.4 ± 3.0 |  |  |  |  |  |  |  |  |  |
| O=C(CCCN1C(=O)c2ccccc2C=Cc2ccccc21)NO [Compound 7i] | > 50000 | > 50000 | 172 to 173 | 90.4 ± 1.6 |  |  |  |  |  |  |  |  |  |
| O=C(CCN1C(=O)c2ccccc2C=Cc2ccccc21)NO [Compound 7h] | 32600 ± 4780 | > 50000 | 173 to 174 | 87.5 ± 1.2 |  |  |  |  |  |  |  |  |  |
| CN1C(=O)c2cc3ccccc3cc2N(CCCCCC(=O)NO)C(=O)c2cc(Cl)ccc21 [Compound 7t] | 137 ± 40 | 93 ± 9 | 161 to 162 | 19.9 ± 1.6 | 1950 ± 170 | 5.04 | 7.42 | 1050 ± 70 | 0.66 | 368 ± 15 | 1.88 | 690 ± 50 | 266 ± 14 nM |
| O=C(CCCCN1C(=O)c2ccccc2C=Cc2ccccc21)NO [Compound 7j] | 3470 ± 660 | 5300 ± 1360 | 175 to 176 | 63.3 ± 0.5 |  |  |  |  |  |  |  |  |  |
| CN1C(=O)c2ccccc2N(CC(=O)NO)C(=O)c2ccccc21 [Compound 7a] | > 50000 | > 50000 | 233 to 234 | 95.6 ± 1.4 |  |  |  |  |  |  |  |  |  |
| O=C(CCCCCCN1C(=O)c2ccccc2C=Cc2ccccc21)NO [Compound 7l] | 1440 ± 610 | 1570 ± 120 | 151 to 152 | 44.7 ± 4.4 |  |  |  |  |  |  |  |  | 1240 ± 155 nM |
| CN1C(=O)c2ccccc2N(CCCCCCC(=O)NO)C(=O)c2ccccc21 [Compound 7f] | 4830 ± 1960 | 4450 ± 340 | 145 to 146 | 66.1 ± 4.1 |  |  |  |  |  |  |  |  |  |
| COc1cc2c(cc1OC)N(CCCCCC(=O)NO)C(=O)c1ccccc1N(C)C2=O [Compound 7s] | 944 ± 167 | 692 ± 110 | 82 to 83 | 35.9 ± 0.8 |  | 12.75 | 17.4 | 18000 ± 5770 | 0.67 | 4240 ± 1030 | 2.84 | 12000 ± 5900 | 914 nM and 875 nM |
| CN1C(=O)c2cc(Cl)c(Cl)cc2C(=O)N(CCCCCC(=O)NO)c2ccccc21 [Compound 7n] | 2560 ± 980 | 2850 ± 340 | 104 to 105 | 68.3 ± 2.8 |  |  |  |  |  |  |  |  |  |
| O=C(CCCCCN1C(=O)c2ccccc2C=Cc2ccccc21)NO [Compound 7k] | 460 ± 122 | 220 ± 21 |  | 15.7 ± 1.3 | 3370 ± 330 | 2.78 | 5.82 | 1270 ± 420 | 1.01 | 618 ± 95 | 2.07 | 1280 ± 150 | 183 ± 15 nM |
| O=C(CN1C(=O)c2ccccc2C=Cc2ccccc21)NO [Compound 7g] | 17300 ± 6200 | 34000 ± 750 | 119 to 120 | 83.6 ± 4.2 |  |  |  |  |  |  |  |  |  |
| CN1C(=O)c2ccccc2N(CCC(=O)NO)C(=O)c2ccccc21 [Compound 7b] | > 50000 | > 50000 | 105 to 106 | 84.1 ± 2.3 |  |  |  |  |  |  |  |  |  |
| CN1C(=O)c2ccccc2C(=O)N(CCCCCC(=O)NO)c2ccccc21 [Compound 7m] | 5090 ± 300 | 4450 ± 960 | 95 to 96 | 72.7 ± 5.2 |  |  |  |  |  |  |  |  |  |
